Experimental data published in patent publication US10696951B2, “Method for culturing pluripotent stem cells” (JTEC Corporation, priority 2014, dated 2020).

Tested on: 253G1 cells
Assay: Rotary culture of 253G1 cells with RWV bioreactor in 10 mL vessel: spheroid formation and proliferation rate
Assay type: cell-based, human
Conditions: for Proliferation rate: 5 days, detached with 5 mM EDTA and TrypLE Select
Experimental: To perform three-dimensional culture, 253G1 cells to be seeded were detached into small spheroids (loose cell masses each having a diameter of approximately 50 μm to 200 μm) each consisting of 20 to 40 cells with 5 mM EDTA. The detached 4.9×10^5 253G cells (small spheroids obtained through chemical disrupting) were seeded in an mTeSR1 medium (10 mL) containing the ROCK (Rho-associated kinase) inhibitor Y27632 (Wako Pure Chemical Industries, Ltd., 10 μM) or an mTeSR1 medium (10 mL) free of the ROCK inhibitor Y27632 in a 10 mL RWV vessel (diameter: 5 cm; Synthecon, Incorporated), and rotary-cultured with an RWV bioreactor (Synthecon, Incorporated) at 37° C. and 8 rpm for 3 days. After culturing, a photograph of a phase contrast image of spherical spheroids produced in the culture medium was taken with the inverted microscope Axio Observer (Carl Zeiss) (FIG. 1). In addition, the diameter of each spherical spheroid was measured, and the size distribution was investigated (FIG. 2).
Subsequently, the spherical spheroids were collected, and disrupted by pipetting with a pipette to disperse the cells. The number of the cells was counted by using the automated cell counter, Countess™ (Invitrogen). From the total number of the cells in the culture medium, the proliferation rate relative to the number of the cells seeded (4.9×10^5 cells) was calculated (total number of cells/4.9×10^5 cells).
To determine a more suitable ROCK inhibitor concentration, 253G1 cells were rotary-cultured for 3 days under the same conditions as in the above except that three ROCK inhibitor concentrations (3 μM, 10 μM, or 30 μM) were used. After culturing, the number of spherical spheroids formed was 10 in the case of 3 μM, 50 in the case of 10 μM, and 20 in the case of 30 μM.
To determine a more suitable number of cells to be seeded, 253G1 cells detached into small spheroids each consisting of approximately 20 to 40 cells with 5 mM EDTA and TrypLE™ Select were seeded at 4.27×10^5, 8.55×10^5, or 1.28×10^6 cells in a 10 mL RWV vessel, and rotary-cultured for 5 days in an mTeSR1 medium containing or free of the ROCK inhibitor Y27632 (10 μM) by the same method as in the above (1). After culturing, the number of the cells was counted and the proliferation rate was calculated in the same manner as in the above.
Further, the 253G1 cells detached into small spheroids each consisting of approximately 20 to 40 cells with only 5 mM EDTA were seeded in a 10 mL RWV vessel at a number of cells seeded in the above preferred range, and rotary-cultured in a 10 μM ROCK inhibitor Y27632-containing mTeSR1 medium (10 mL) for 3 days.

[1] = 10 μM in mTeSR1, 4.9×10^5 cells seeded, 10 mL RWV vessel, 8 rpm, 3 days, detached with 5 mM EDTA
[2] = 1st run, 10 μM, 4.9 × 10^5 cells seeded, 10 mL vessel, 3 days, only 5 mM EDTA
[3] = 2nd run, 10 μM, 4.1 × 10^5 cells seeded, 10 mL vessel, 3 days, only 5 mM EDTA

C[C@@H](N)[C@H]1CC[C@H](C(=O)Nc2ccncc2)CC1.Cl.Cl.O (relative stereo) [Y27632, (R)-(+)-trans-N-(4-pyridyl)-4-(1-aminoethyl)-cyclohexanecarboxamide.2HClH2O]
Number of spherical spheroids formed (3 μM, 10 mL vessel, 3 days): 10 | Proliferation rate (total number of cells / cells seeded) [1]: 6.5 fold | Total number of cells [1]: 3.1 × 10^6 cells | Total number of cells (10 μM in mTeSR1, 4.9×10^5 cells seeded, 10 mL RWV vessel, 8 rpm, 3 days, detached with 5 mM EDTA, listed as ROCK inhibitor): 3.1×10^6 cells | Proliferation rate (10 μM, 1.28 × 10^6 cells seeded/10 mL vessel): 1.43-fold | Proliferation rate (10 μM, 4.27 × 10^5 cells seeded/10 mL vessel): 4.78-fold | Formation of spherical spheroids (10 μM, 4.9×10^5 cells seeded, 10 mL vessel, 3 days, inhibitor-free medium gave no spheroids): numerous spherical spheroids were formed | Proliferation rate (10 μM, 8.55 × 10^5 cells seeded/10 mL vessel): 1.93-fold | Number of spherical spheroids formed (10 μM, 10 mL vessel, 3 days): 50 | Proliferation rate versus ROCK inhibitor-free medium (10 μM, 10 mL vessel, experiment repeated a plurality of times): significantly increased | Number of spherical spheroids formed (30 μM, 10 mL vessel, 3 days): 20 | Number of only cells of spheroids [2]: 2.4 × 10^6 cells | Number of spheroids [2]: approximately 130 spheroids | Proliferation rate of only cells of spheroids [2]: 4.9 fold | Number of only cells of spheroids [3]: 1.4 × 10^6 cells | Number of spheroids [3]: approximately 100 spheroids | Proliferation rate (total number of cells) [3]: 5.85 fold | Proliferation rate of only cells of spheroids [3]: 3.41 fold | Total number of cells [3]: 2.4 × 10^6 cells
